Experimental data: ChEMBL document CHEMBL5154725, “SAR evolution towards potent C-terminal carboxamide peptide inhibitors of Zika virus NS2B-NS3 protease” (Bioorg Med Chem, 2022)
Non-standard residues stand in square brackets, D forms with d. Residues, ends and D or L forms follow the SMILES beside them. *: point of attachment. Phe(4-CONH2) = NC(=O)c1ccc(C[C@H](N)C(=O)O)cc1; Phe(4-CH2NH2) = NCc1ccc(C[C@H](N)C(=O)O)cc1; Hydrocinnamoyl = O=C(CCc1ccccc1)*; Aad = N[C@@H](CCCC(=O)O)C(=O)O; Cit = NC(=O)NCCC[C@H](N)C(=O)O; hLys = NCCCCC[C@H](N)C(=O)O; Orn = NCCC[C@H](N)C(=O)O; PhAc = O=C(Cc1ccccc1)*; NHBn = c1ccc(CN*)cc1; NHCH2CH2OH = OCCN*

System: Zika virus
Assay: (§1) Inhibition of 6-His tagged-G4SG4 fused ZIKV NS2B (49 to 95 residues) R95A mutant-NS3 (1 to 170 residue) R29G mutant expressed in Escherichia coli BL21 (DE3) using Bz-Nle-K-RR-AMC substrate at 100 uM preincubated for 10 mins followed by substrate addition and measured after 30 mins by fluorescence assay relative to control
Conditions: time 40.0 min

Structure (SMILES) | inhibition [%]
N=C(N)NCCC[C@H](NC(=O)[C@H](Cc1ccc(CN)cc1)NC(=O)[C@H](CCCCN)NC(=O)Cc1ccccc1)C(N)=O (PhAc-Lys-[Phe(4-CH2NH2)]-Arg-NH2) | 66
N=C(N)NCCC[C@H](NC(=O)[C@H](CCCCN)NC(=O)CNC(=O)Cc1ccccc1)C(N)=O (PhAc-Gly-Lys-Arg-NH2) | 40
CC(=O)N[C@H](C(=O)NCC(=O)N[C@@H](CCCCN)C(=O)N[C@@H](CCCNC(=N)N)C(=O)O)[C@@H](C)O (Ac-TGKR-OH) | 40
CC(=O)N[C@H](C(=O)NCC(=O)N[C@@H](CCCCN)C(=O)N[C@@H](CCCNC(=N)N)C(N)=O)[C@@H](C)O (Ac-TGKR-NH2) | 40
N=C(N)NCCC[C@H](NC(=O)[C@H](CCCCN)NC(=O)CNC(=O)Cc1ccccc1)C(=O)O (PhAc-Gly-Lys-Arg-OH) | 40

System: Zika virus
Assay: as §1, with “50” for “100”
Conditions: time 40.0 min

Structure (SMILES) | inhibition [%]
N=C(N)NCCC[C@H](NC(=O)[C@H](CCCCN)NC(=O)[C@H](CCCC(N)=O)NC(=O)Cc1ccccc1)C(N)=O (PhAc-[Aad](NH2)-Lys-Arg-NH2) | 40
C[C@H](NC(=O)[C@H](CCCNC(=N)N)NC(=O)[C@H](CCCCN)NC(=O)[C@H](CCCCN)NC(=O)Cc1ccccc1)c1ccccc1 | 50

System: not listed separately
Assay: Inhibition of 6-His tagged-G4SG4 fused ZIKV NS2B (49 to 95 residues) R95A mutant-NS3 (1 to 170 residue) R29G mutant expressed in Escherichia coli BL21 (DE3) using Bz-Nle-K-RR-AMC substrate preincubated for 10 mins followed by substrate addition and measured after 30 mins by fluorescence assay
Parameters: species or system Zika virus
Conditions: not given

Structure (SMILES) | IC50 [µM]
NCCCC[C@H](NC(=O)Cc1ccccc1)C(=O)N[C@@H](CCCCN)C(=O)N[C@@H](C(=O)NCc1ccccc1)c1ccccc1 | 1.9
N=C(N)NCCC[C@H](NC(=O)c1cccs1)C(=O)N[C@@H](CCCCN)C(=O)N[C@H](C(=O)NCc1ccccc1)c1ccc(OCc2ccc(C(F)(F)F)cc2)cc1 | 0.31
NCCCC[C@H](NC(=O)[C@H](CCCCN)NS(=O)(=O)Cc1ccccc1)C(=O)N[C@H](C(=O)NCc1ccccc1)c1ccc(OCc2ccc(C(F)(F)F)cc2)cc1 | 1.8
NCCCC[C@H](NC(=O)Cc1ccccc1)C(=O)N[C@@H](CCCCN)C(=O)N[C@H](C(=O)NCC1CCNCC1)c1ccc(OCc2ccc(C(F)(F)F)cc2)cc1 | 0.35
N=C(N)NCCC[C@H](NC(=O)[C@H](CCCCN)NC(=O)[C@H](Cc1ccc(CN)cc1)NC(=O)Cc1ccccc1)C(N)=O (PhAc-[Phe(4-CH2NH2)]-Lys-Arg-NH2) | 8.57
CCOc1ccc([C@H](NC(=O)[C@H](CCCCN)NC(=O)[C@H](CCCNC(=N)N)NC(=O)c2cccs2)C(N)=O)cc1 | 17.9
N=C(N)NCCC[C@H](NC(=O)[C@H](CCCCN)NC(=O)[C@H](CCCCN)NC(=O)Cc1ccccc1)C(=O)O (PhAc-Lys-Lys-Arg-OH) | 41
N=C(N)NCCC[C@H](NC(=O)c1cccs1)C(=O)N[C@@H](CCCCN)C(=O)N[C@H](C(N)=O)c1ccc(OCc2ccccc2)cc1 | 7.6
N=C(N)NCCC[C@H](NC(=O)[C@H](CCCCN)NC(=O)[C@H](Cc1cccc(CN)c1)NC(=O)Cc1ccccc1)C(N)=O | 37.5
N=C(N)NCCC[C@H](NC(=O)c1cccs1)C(=O)N[C@@H](CCCCN)C(=O)N[C@H](C(N)=O)c1ccc(O)cc1 | 10.2
N=C(N)NCCC[C@H](NC(=O)[C@H](CCCCN)NC(=O)[C@H](CCCCN)NC(=O)C1(c2ccccc2)CC1)C(N)=O | 10.1
CN(Cc1ccccc1)C(=O)[C@@H](NC(=O)[C@H](CCCCN)NC(=O)[C@H](CCCCN)NC(=O)Cc1ccccc1)c1ccc(OCc2ccc(C(F)(F)F)cc2)cc1 | 4.7
NCCCC[C@H](NC(=O)Cc1ccccc1)C(=O)N[C@@H](CCCCN)C(=O)N[C@H](C(=O)NCC1CCCCC1)c1ccc(OCc2ccc(C(F)(F)F)cc2)cc1 | 0.08
NCCCC[C@H](NC(=O)Cc1ccccc1)C(=O)N[C@@H](CCCCN)C(=O)N[C@H](C(=O)NCc1ccc(Cl)cc1)c1ccc(OCc2ccc(C(F)(F)F)cc2)cc1 | 0.16
CN(Cc1ccccc1)C(=O)[C@H](CCCNC(=N)N)NC(=O)[C@H](CCCCN)NC(=O)[C@H](CCCCN)NC(=O)Cc1ccccc1 | 70
NCCCC[C@H](NC(=O)Cc1ccccc1)C(=O)N[C@@H](CCCCN)C(=O)N[C@H](C(=O)NCc1ccc2c(c1)OCO2)c1ccc(OCc2ccc(C(F)(F)F)cc2)cc1 | 0.06
CC(=O)N[C@@H](CCCCN)C(=O)N[C@@H](CCCCN)C(=O)N[C@@H](CCCNC(=N)N)C(N)=O (Ac-Lys-Lys-Arg-NH2) | 8.4
N=C(N)NCCC[C@H](NC(=O)c1cccs1)C(=O)N[C@@H](CCCCN)C(=O)N[C@H](C(N)=O)c1ccc(OCc2ccccc2C(F)(F)F)cc1 | 7.1
NCCCC[C@H](NC(=O)Cc1ccccc1)C(=O)N[C@@H](CCCCN)C(=O)N[C@H](C(=O)NC1Cc2ccccc2C1)c1ccc(OCc2ccc(C(F)(F)F)cc2)cc1 | 2
N=C(N)NCCC[C@H](NC(=O)[C@H](CCCCN)NC(=O)[C@H](CCCCN)NC(=O)Cc1ccccc1)C(=O)NCc1ccccc1 (PhAc-Lys-Lys-Arg-NHBn) | 7.9
NCCCC[C@H](NC(=O)Cc1ccccc1)C(=O)N[C@@H](CCCCN)C(=O)N[C@H](C(=O)NCc1ccc(O)cc1)c1ccccc1 | 0.37
NCCCC[C@H](NC(=O)Cc1ccccc1)C(=O)N[C@@H](CCCCN)C(=O)N[C@H](C(N)=O)c1ccccc1 | 7
NCCCCC(NC(=O)Cc1ccccc1)C(=O)N[C@@H](CCCCN)C(=O)NC(C(=O)NCc1ccccc1)c1ccc(OCc2ccc(C(F)(F)F)cc2)cc1 (single isomer, unassigned) | 1.12
N=C(N)NCCC[C@H](NC(=O)c1cccs1)C(=O)N[C@@H](CCCCN)C(=O)N[C@H](C(N)=O)c1ccc(OCCN2CCCCC2)cc1 | 3
N#Cc1ccc(COc2ccc([C@H](NC(=O)[C@H](CCCCN)NC(=O)[C@H](CCCNC(=N)N)NC(=O)c3cccs3)C(N)=O)cc2)cc1 | 27.3

Structure (SMILES) | IC50 [µM]
N=C(N)NCCC[C@H](NC(=O)Cc1ccccc1)C(=O)N[C@@H](CCCCN)C(=O)N[C@H](C(N)=O)c1ccc(OCc2ccc(C(F)(F)F)cc2)cc1 | 31.8
N=C(N)NCCC[C@H](NC(=O)c1cccs1)C(=O)N[C@@H](CCCCN)C(=O)N[C@H](C(N)=O)c1ccc(OCCN2CCOCC2)cc1 | 22
N=C(N)NCCC[C@H](NC(=O)[C@H](CCCCN)NC(=O)[C@H](CCCCN)NC(=O)Cc1ccc(-c2ccccc2)cc1)C(N)=O | 1.55
N=C(N)NCCC[C@H](NC(=O)[C@H](CCCCN)NC(=O)[C@H](CCCCN)NC(=O)Cc1ccccc1)C(=O)NCCO (PhAc-Lys-Lys-Arg-NHCH2CH2OH) | 10.8
N=C(N)NCCC[C@H](NC(=O)[C@H](CCCCN)NC(=O)[C@H](CCCCN)NC(=O)Cc1cccs1)C(N)=O | 16.5
COc1ccc(CC(=O)N[C@@H](CCCCN)C(=O)N[C@@H](CCCCN)C(=O)N[C@H](C(=O)NCc2ccccc2)c2ccc(OCc3ccc(C(F)(F)F)cc3)cc2)cc1 | 0.27
NCCCC[C@H](NC(=O)c1cccs1)C(=O)N[C@@H](CCCCN)C(=O)N[C@H](C(=O)NCc1ccc(OCc2ccc(C(F)(F)F)cc2)cc1)c1ccccc1 | 0.2
COc1ccc(CNC(=O)[C@@H](NC(=O)[C@H](CCCCN)NC(=O)[C@H](CCCCN)NC(=O)Cc2ccccc2)c2ccc(OCc3ccc(C(F)(F)F)cc3)cc2)cc1 | 0.13
N=C(N)NCCC[C@H](NC(=O)[C@H](Cc1ccc(C(N)=O)cc1)NC(=O)[C@H](CCCCN)NC(=O)Cc1ccccc1)C(N)=O (PhAc-Lys-[Phe(4-CONH2)]-Arg-NH2) | > 100
NCCCC[C@H](NC(=O)Nc1ccccc1)C(=O)N[C@@H](CCCCN)C(=O)N[C@H](C(=O)NCc1ccccc1)c1ccc(OCc2ccc(C(F)(F)F)cc2)cc1 | 0.16
N=C(N)NCCC[C@H](NC(=O)[C@H](CCCCN)NC(=O)[C@H](Cc1ccccc1)NC(=O)Cc1ccccc1)C(N)=O (PhAc-Phe-Lys-Arg-NH2) | 35
N=C(N)NCCC[C@H](NC(=O)[C@H](CCCCN)NC(=O)[C@H](CCCCN)NC(=O)C(F)c1ccccc1)C(N)=O (mixture of isomers) | 4.94
N=C(N)NCCC[C@H](NC(=O)c1cccs1)C(=O)N[C@@H](CCCCN)C(=O)NC(C(N)=O)c1ccc(-c2ccc(C(F)(F)F)cc2)cc1 (mixture of isomers) | 6.1
N=C(N)NCCC[C@H](NC(=O)c1cccs1)C(=O)N[C@@H](CCCCN)C(=O)N[C@@H](C(=O)NCc1ccccc1)c1ccc(OCc2ccc(C(F)(F)F)cc2)cc1 | 0.92
N=C(N)NCCC[C@H](NC(=O)[C@H](CCCCCN)NC(=O)[C@H](CCCCN)NC(=O)Cc1ccccc1)C(N)=O (PhAc-Lys-[hLys]-Arg-NH2) | 2.7
N=C(N)NCCC[C@H](NC(=O)[C@H](CCCCN)NC(=O)[C@H](CCCCN)NC(=O)CCc1ccccc1)C(N)=O (Hydrocinnamoyl-Lys-Lys-Arg-NH2) | 9.35
N=C(N)NCCC[C@H](NC(=O)c1cccs1)C(=O)N[C@@H](CCCCN)C(=O)N[C@H](C(N)=O)c1ccc(OCc2ncco2)cc1 | > 100
N=C(N)NCCC[C@H](NC(=O)c1cccs1)C(=O)N[C@@H](CCCCN)C(=O)NC(C(N)=O)c1cccc(OCc2ccc(C(F)(F)F)cc2)c1 (mixture of isomers) | 6.4
N=C(N)NCCC[C@H](NC(=O)c1cccs1)C(=O)N[C@@H](CCCCN)C(=O)N[C@H](C(N)=O)c1ccc(OCc2ccncc2)cc1 | 12.1
NCCCC[C@H](NC(=O)Cc1ccccc1)C(=O)N[C@@H](CCCCN)C(=O)N[C@H](C(=O)NCc1cc(Cl)cc(Cl)c1)c1ccccc1 | 0.32
N=C(N)NCCC[C@H](NC(=O)[C@H](CCCN)NC(=O)[C@H](CCCCN)NC(=O)Cc1ccccc1)C(N)=O (PhAc-Lys-[Orn]-Arg-NH2) | 3.9
COc1ccc([C@H](NC(=O)[C@H](CCCCN)NC(=O)[C@H](CCCNC(=N)N)NC(=O)c2cccs2)C(N)=O)cc1 | 44.3
N=C(N)NCCC[C@H](NC(=O)c1cccs1)C(=O)N[C@@H](CCCCN)C(=O)N[C@H](C(N)=O)c1ccc(OCc2ccc(C(F)(F)F)cc2)cc1 | 2.5
NCCCC[C@H](NC(=O)Oc1ccccc1)C(=O)N[C@@H](CCCCN)C(=O)N[C@H](C(=O)NCc1ccccc1)c1ccc(OCc2ccc(C(F)(F)F)cc2)cc1 | 0.84
N=C(N)NCCC[C@H](NC(=O)[C@H](CCCNC(N)=O)NC(=O)[C@H](CCCCN)NC(=O)Cc1ccccc1)C(N)=O (PhAc-Lys-[Cit]-Arg-NH2) | > 100
